Assay results: patent publication US12590062B2, “PD-1/PD-L1 inhibitors” (Gilead Sciences, Inc., priority 2017, dated 2026)

Experiments:
PD-1/PD-L1 interaction = biological target: T1, PD-1/PD-L1 interaction (Homo sapiens, UniProt Q9NZQ7); test: PD-1/PD-L1 NFAT reporter co-culture assay; type: cell-based; settings: Jurkat PD-1 NFAT-luciferase cells co-cultured with aAPC-PD-L1 CHO cells, 6 hrs at 37° C.; read-out: EC50 NFAT Luciferase
T1 construct: expressed in transfected cells; host or cells: CHO cells (aAPC-PD-L1) co-cultured with Jurkat cells overexpressing PD-1 and an NFAT-luciferase reporter
How it was run: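 Jurkat cells overexpressing PD-1 with NFAT-driven luciferase were mixed with compound in RPMI 1640/2% FBS and seeded onto overnight-plated CHO aAPC-PD-L1 cells expressing surface anti-CD3 and PD-L1. Co-culture ran 6 h at 37 °C; luminescence read with ONE-Glo; EC50 from four-parameter fit.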

PD-1/PD-L1 = PD-1/PD-L1 (Homo sapiens, UniProt Q9NZQ7); test: PD-1/PD-L1 biochemical protein-protein interaction assay (ALPHA); type: binding; settings: 0.3 nM His tagged PD-L1, 2.5 nM biotinylated Fc-PD-1, 60 minutes at 25° C., read-out: IC50 PD-L1-PD-1 Alpha IC50-mono PD-L1-fcP-D1
How it was run: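 His-PD-L1 ECD 0.3 nM + biotin-Fc-PD-1 2.5 nM (final), 25 mM Hepes pH 7.4, 150 mM NaCl, 3.4 mM EDTA; 60 min, 25° C; anti-His acceptor/streptavidin donor ALPHA beads; decreased signal = blocked binding; 4-parameter IC50.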

PD-L1 = biological target: T2, PD-L1 (Homo sapiens, UniProt Q9NZQ7); test: PD-L1/PD-L1 dimerization biochemical protein-protein interaction assay (ALPHA); type: binding; settings: compound-induced PD-L1 dimerization, head prints '1 nM' (0.5 nM His-tagged PD-L1 and 0.5 nM FLAG-tagged PD-L1), read-out: AC50 PDL1 Dimer Alpha 1 nM
T2 construct: determine if they can specifically dimerize the extracellular domains of PD-L1
How it was run: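 After 2 h at 25 °C with compound, His- and FLAG-tagged PD-L1 ECDs (each 0.5 nM final; 25 mM Hepes pH 7.4, 150 mM NaCl) were detected by sequential anti-His acceptor and anti-FLAG donor bead incubations. Dose-response curves fitted to four-parameter equation for AC50.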

T1 sequence (Q9NZQ7 19-290): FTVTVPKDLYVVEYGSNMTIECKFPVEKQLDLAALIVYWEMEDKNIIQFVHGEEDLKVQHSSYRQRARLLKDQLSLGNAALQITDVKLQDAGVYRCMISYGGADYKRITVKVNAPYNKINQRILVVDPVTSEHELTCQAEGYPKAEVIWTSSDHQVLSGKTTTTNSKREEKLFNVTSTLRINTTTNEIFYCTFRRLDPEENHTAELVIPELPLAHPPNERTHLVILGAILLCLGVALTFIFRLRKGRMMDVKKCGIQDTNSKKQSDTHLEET
T2 sequence (Q9NZQ7 19-238 limits assumed): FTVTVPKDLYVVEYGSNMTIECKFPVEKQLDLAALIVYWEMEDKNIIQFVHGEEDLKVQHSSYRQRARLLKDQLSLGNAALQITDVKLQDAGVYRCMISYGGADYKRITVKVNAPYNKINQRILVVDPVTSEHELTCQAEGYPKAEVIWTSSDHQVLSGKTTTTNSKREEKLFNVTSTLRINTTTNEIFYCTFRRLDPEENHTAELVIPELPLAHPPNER
T2 sequence (Q9NZQ7 19-238 limits assumed): as above
PD-1/PD-L1, sequence (Q9NZQ7 19-238 limits assumed): as above

Q: For `Cc1c(COc2cc(OCc3cncc(C#N)c3)c(CNCCO)cc2Cl)cccc1-c1cccc(-c2ccc(CNCCO)cc2)c1CF` [Example 365, 5-((4-chloro-5-((2′-(fluoromethyl)-4″-(((2-hydroxyethyl)amino)methyl)-2-methyl-[1,1′:3′,1″-terphenyl]-3-yl)methoxy)-2-(((2-hydroxyethyl)amino)methyl)phenoxy)methyl)nicotinonitrile], which EC50 (PD-1/PD-L1 interaction) is on record?
A: Its EC50 is 408 nM.

Q: And the IC50 (PD-1/PD-L1)?
A: The IC50 was 1.57 nM.

Q: What about the AC50 (PD-L1) of the same compound?
A: The AC50 was 174 nM.

Q: For `Cc1c(COc2cc(OCc3cncc(C#N)c3)c(CN[C@H]3CCCC[C@@H]3O)cc2Cl)cccc1-c1cccc(-c2cccc(OCCNCCO)c2)c1C` [Example 367, 5-((4-chloro-2-((((1S,2S)-2-hydroxycyclohexyl)amino)methyl)-5-((3″-(2-((2-hydroxyethyl)amino)ethoxy)-2,2′-dimethyl-[1,1′:3′,1″-terphenyl]-3-yl)methoxy)phenoxy)methyl)nicotinonitrile], which EC50 (PD-1/PD-L1 interaction) is on record?
A: The EC50 was 376 nM.

Q: And the IC50 (PD-1/PD-L1)?
A: The IC50 was 2.53 nM.

Q: And the AC50 (PD-L1)?
A: The AC50 was 227 nM.

Q: For `Cc1c(COc2cc(OCc3cncc(C#N)c3)c(CN[C@@H]3CCC[C@@H]3O)cc2Cl)cccc1-c1cccc(-c2ccc(CN3CC(CC(=O)O)C3)cc2)c1C` [Example 368, 2-(1-((3″-((2-chloro-5-((5-cyanopyridin-3-yl)methoxy)-4-((((1R,2S)-2-hydroxycyclopentyl)amino)methyl)phenoxy)methyl)-2′,2″-dimethyl-[1,1′:3′,1″-terphenyl]-4-yl)methyl)azetidin-3-yl)acetic acid], which EC50 (PD-1/PD-L1 interaction) is on record?
A: The EC50 was 118 nM.

Q: What about the IC50 (PD-1/PD-L1) of the same compound?
A: The IC50 was 1.88 nM.

Q: What about the AC50 (PD-L1) of the same compound?
A: The AC50 was 274 nM.

Q: `Cc1c(COc2cc(OCc3cncc(C#N)c3)c(CN[C@@H]3CCC[C@@H]3O)cc2Cl)cccc1-c1cccc(-c2ccc3c(c2)CCC3N2CC[C@H](C(=O)O)C2)c1C` (stereo partly drawn) [Example 369, (3S)-1-(5-(3′-((2-chloro-5-((5-cyanopyridin-3-yl)methoxy)-4-((((1R,2S)-2-hydroxycyclopentyl)amino)methyl)phenoxy)methyl)-2,2′-dimethyl-[1,1′-biphenyl]-3-yl)-2,3-dihydro-1H-inden-1-yl)pyrrolidine-3-carboxylic acid] was tested. Which EC50 (PD-1/PD-L1 interaction) did it give?
A: The EC50 was 107 nM.

Q: What about the IC50 (PD-1/PD-L1) of the same compound?
A: The IC50 was 0.164 nM.

Q: What about the AC50 (PD-L1) of the same compound?
A: Its AC50 is 57.6 nM.

Q: With `Cc1c(COc2cc(OCc3cncc(C#N)c3)c(CN3CC[C@@H](O)C3)cc2Cl)cccc1-c1cccc(-c2ccc3c(c2)CCC3N2CC[C@@H](C(=O)O)C2)c1C` (stereo partly drawn) [Example 370, (3R)-1-(5-(3′-((2-chloro-5-((5-cyanopyridin-3-yl)methoxy)-4-(((R)-3-hydroxypyrrolidin-1-yl)methyl)phenoxy)methyl)-2,2′-dimethyl-[1,1′-biphenyl]-3-yl)-2,3-dihydro-1H-inden-1-yl)pyrrolidine-3-carboxylic acid] as the compound, how does the EC50 (PD-1/PD-L1 interaction) read?
A: The EC50 was 577 nM.

Q: What about the IC50 (PD-1/PD-L1) of the same compound?
A: Its IC50 is 0.139 nM.

Q: And the AC50 (PD-L1)?
A: Its AC50 is 81.4 nM.

Q: For `Cc1c(COc2cc(OCc3cncc(C#N)c3)c(CN[C@@](C)(CO)C(=O)O)cc2Cl)cccc1-c1cccc(-c2ccc3c(c2)CCC3N2CC(C)C2)c1C` (stereo partly drawn) [Example 371, (2S)-2-((5-chloro-2-((5-cyanopyridin-3-yl)methoxy)-4-((2,2′-dimethyl-3′-(1-(3-methylazetidin-1-yl)-2,3-dihydro-1H-inden-5-yl)-[1,1′-biphenyl]-3-yl)methoxy)benzyl)amino)-3-hydroxy-2-methylpropanoic acid], which EC50 (PD-1/PD-L1 interaction) is on record?
A: The EC50 was 210 nM.

Q: And the IC50 (PD-1/PD-L1)?
A: The IC50 was 0.074 nM.

Q: And the AC50 (PD-L1)?
A: Its AC50 is 78 nM.

Q: Which EC50 (PD-1/PD-L1 interaction) does the source give for `Cc1c(COc2cc(OCc3cncc(C#N)c3)c(CNC[C@@H](O)CC(=O)O)cc2Cl)cccc1-c1cccc(-c2cc3c(cc2F)C(N(C)C)CC3)c1C` (stereo partly drawn) [Example 372, (3S)-4-((5-chloro-2-((5-cyanopyridin-3-yl)methoxy)-4-((3′-(1-(dimethylamino)-6-fluoro-2,3-dihydro-1H-inden-5-yl)-2,2′-dimethyl-[1,1′-biphenyl]-3-yl)methoxy)benzyl)amino)-3-hydroxybutanoic acid] here?
A: The EC50 was 860 nM.

Q: And the IC50 (PD-1/PD-L1)?
A: The IC50 was 1.13 nM.

Q: And the AC50 (PD-L1)?
A: Its AC50 is 425 nM.

Q: Which results are given for `Cc1c(COc2cc(OCc3cncc(C#N)c3)c(CNCCO)cc2Cl)cccc1-c1cccc(-c2ccc3c(c2)CCC3N2CC[C@H](O)C2)c1C` (stereo partly drawn) [Example 373, 5-((4-chloro-2-(((2-hydroxyethyl)amino)methyl)-5-((3′-(1-((S)-3-hydroxypyrrolidin-1-yl)-2,3-dihydro-1H-inden-5-yl)-2,2′-dimethyl-[1,1′-biphenyl]-3-yl)methoxy)phenoxy)methyl)nicotinonitrile]?
A: EC50 (PD-1/PD-L1 interaction): 339 nM; IC50 (PD-1/PD-L1): 2.59 nM; AC50 (PD-L1): 168 nM

Q: What does the source list for `Cc1c(COc2cc(OCc3cncc(C#N)c3)c(CN[C@@](C)(CO)C(=O)O)cc2Cl)cccc1-c1cccc(-c2ccc(C3CCCN3CCO)cc2)c1C` (stereo partly drawn) [Example 374, (2S)-2-((5-chloro-2-((5-cyanopyridin-3-yl)methoxy)-4-((4″-(1-(2-hydroxyethyl)pyrrolidin-2-yl)-2,2′-dimethyl-[1,1′:3′,1″-terphenyl]-3-yl)methoxy)benzyl)amino)-3-hydroxy-2-methylpropanoic acid]?
A: EC50 (PD-1/PD-L1 interaction): 788 nM; IC50 (PD-1/PD-L1): 0.136 nM; AC50 (PD-L1): 165 nM

Q: What does the source list for `Cc1c(COc2cc(OCc3cncc(C#N)c3)c(CN[C@@](C)(CO)C(=O)O)cc2Cl)cccc1-c1cccc(-c2ccc3c(c2)CCC3N(C)CCO)c1C` (stereo partly drawn) [Example 375, (2S)-2-((5-chloro-2-((5-cyanopyridin-3-yl)methoxy)-4-((3′-(1-((2-hydroxyethyl)(methyl)amino)-2,3-dihydro-1H-inden-5-yl)-2,2′-dimethyl-[1,1′-biphenyl]-3-yl)methoxy)benzyl)amino)-3-hydroxy-2-methylpropanoic acid]?
A: EC50 (PD-1/PD-L1 interaction): 389 nM; IC50 (PD-1/PD-L1): 0.21 nM; AC50 (PD-L1): 173 nM

Q: How did the EC50 (PD-1/PD-L1 interaction) turn out when `Cc1c(COc2cc(OCc3cncc(C#N)c3)c(CN3C[C@@H](O)C[C@H]3C(=O)O)cc2Cl)cccc1-c1cccc(-c2ccc3c(c2)CC[C@H]3N(C)C)c1C` [Example 377, (2S,4S)-1-(5-chloro-2-((5-cyanopyridin-3-yl)methoxy)-4-((3′-((R)-1-(dimethylamino)-2,3-dihydro-1H-inden-5-yl)-2,2′-dimethyl-[1,1′-biphenyl]-3-yl)methoxy)benzyl)-4-hydroxypyrrolidine-2-carboxylic acid] was run?
A: Its EC50 is 262 nM.

Q: What about the IC50 (PD-1/PD-L1) of the same compound?
A: The IC50 was 0.178 nM.

Q: What about the AC50 (PD-L1) of the same compound?
A: The AC50 was 231 nM.

Q: Which EC50 (PD-1/PD-L1 interaction) does the source give for `Cc1c(COc2cc(OCc3cncc(C#N)c3)c(CNCCO)cc2Cl)cccc1-c1cccc(-c2ccc(C3CCCN3)cc2)c1C` (stereo not drawn) [Example 379, 5-((4-chloro-5-((2,2′-dimethyl-4″-(pyrrolidin-2-yl)-[1,1′:3′,1″-terphenyl]-3-yl)methoxy)-2-(((2-hydroxyethyl)amino)methyl)phenoxy)methyl)nicotinonitrile] here?
A: Its EC50 is 415 nM.

Q: And the IC50 (PD-1/PD-L1)?
A: The IC50 was 2.38 nM.

Q: What about the AC50 (PD-L1) of the same compound?
A: Its AC50 is 153 nM.

Q: For `Cc1c(COc2cc(OCc3cncc(C#N)c3)c(CNC[C@@H](O)CC(=O)O)cc2Cl)cccc1-c1cccc(-c2ccc([C@H](C)N(C)C)cc2)c1C` [Example 380, (S)-4-((5-chloro-2-((5-cyanopyridin-3-yl)methoxy)-4-((4″-((S)-1-(dimethylamino)ethyl)-2,2′-dimethyl-[1,1′:3′,1″-terphenyl]-3-yl)methoxy)benzyl)amino)-3-hydroxybutanoic acid], which EC50 (PD-1/PD-L1 interaction) is on record?
A: Its EC50 is 652 nM.

Q: And the IC50 (PD-1/PD-L1)?
A: Its IC50 is 0.282 nM.

Q: And the AC50 (PD-L1)?
A: Its AC50 is 184 nM.

Q: `Cc1c(COc2cc(OCc3cncc(C#N)c3)c(CNC[C@@H](O)CC(=O)O)cc2Cl)cccc1-c1cccc(-c2ccc3c(c2)CCC3N(C)C)c1C` (stereo partly drawn) [Example 381, (3S)-4-((5-chloro-2-((5-cyanopyridin-3-yl)methoxy)-4-((3′-(1-(dimethylamino)-2,3-dihydro-1H-inden-5-yl)-2,2′-dimethyl-[1,1′-biphenyl]-3-yl)methoxy)benzyl)amino)-3-hydroxybutanoic acid] was tested. Which EC50 (PD-1/PD-L1 interaction) did it give?
A: The EC50 was 219 nM.

Q: And the IC50 (PD-1/PD-L1)?
A: Its IC50 is 0.158 nM.

Q: And the AC50 (PD-L1)?
A: The AC50 was 144 nM.

Q: With `Cc1c(COc2cc(OCc3cncc(C#N)c3)c(CN(C)C)cc2Cl)cccc1-c1cccc(-c2ccc(CN(C)C)nc2)c1C` [Example 382, 5-((4-chloro-2-((dimethylamino)methyl)-5-((3′-(6-((dimethylamino)methyl)pyridin-3-yl)-2,2′-dimethyl-[1,1′-biphenyl]-3-yl)methoxy)phenoxy)methyl)nicotinonitrile] as the compound, how does the EC50 (PD-1/PD-L1 interaction) read?
A: The EC50 was 1230 nM.

Q: And the IC50 (PD-1/PD-L1)?
A: The IC50 was 0.304 nM.

Q: And the AC50 (PD-L1)?
A: The AC50 was 334 nM.

Q: `Cc1c(COc2cc(OCc3cncc(C#N)c3)c(CNC[C@@H](O)CC(=O)O)cc2Cl)cccc1-c1cccc(-c2ccc(CN(C)C)cc2)c1C` [Example 383, (S)-4-((5-chloro-2-((5-cyanopyridin-3-yl)methoxy)-4-((4″-((dimethylamino)methyl)-2,2′-dimethyl-[1,1′:3′,1″-terphenyl]-3-yl)methoxy)benzyl)amino)-3-hydroxybutanoic acid] was tested. Which EC50 (PD-1/PD-L1 interaction) did it give?
A: The EC50 was 467 nM.

Q: And the IC50 (PD-1/PD-L1)?
A: The IC50 was 0.252 nM.

Q: What about the AC50 (PD-L1) of the same compound?
A: Its AC50 is 157 nM.

Q: Which EC50 (PD-1/PD-L1 interaction) does the source give for `Cc1c(COc2cc(OCc3cncc(C#N)c3)c(CNC[C@@H](O)CC(=O)O)cc2Cl)cccc1-c1cccc(-c2ccc(CNC[C@@H](O)CC(=O)O)cc2)c1C` [Example 384, (S)-4-((4-((4″-((((S)-3-carboxy-2-hydroxypropyl)amino)methyl)-2,2′-dimethyl-[1,1′:3′,1″-terphenyl]-3-yl)methoxy)-5-chloro-2-((5-cyanopyridin-3-yl)methoxy)benzyl)amino)-3-hydroxybutanoic acid] here?
A: The EC50 was 154 nM.

Q: What about the IC50 (PD-1/PD-L1) of the same compound?
A: The IC50 was 0.112 nM.

Q: And the AC50 (PD-L1)?
A: The AC50 was 154 nM.
